Laboratory results published in PubChem BioAssay (NCI).
Values joined by “and” are separate entries in the source; they are usually repeats but may differ in a detail not shown here. Identical values can stand only once.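 Method: 48-hour compound exposure of cells in 96-well plates, five concentrations, linear interpolation of endpoints. GI50: concentration for 50% inhibition of growth. At the TGI there is no net growth.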

Assays:
Assay in all cases: NCI tumour cell line growth inhibition, 48 h
SR leukemia = system: SR leukemia
OVCAR-4 ovarian = system: OVCAR-4 ovarian
A498 renal = system: A498 renal
A549 NSCLC = system: A549 NSCLC
U251 CNS = system: U251 CNS
KM12 colon = system: KM12 colon
SW-620 colon = system: SW-620 colon
786-0 renal = system: 786-0 renal
OVCAR-3 ovarian = system: OVCAR-3 ovarian
HCT-116 colon = system: HCT-116 colon

Structure (SMILES)	GI50 (SR leukemia) [µM]	TGI (SR leukemia) [µM]	GI50 (OVCAR-4 ovarian) [µM]	TGI (OVCAR-4 ovarian)	GI50 (A498 renal) [µM]	TGI (A498 renal)	GI50 (A549 NSCLC) [µM]	TGI (A549 NSCLC)	GI50 (U251 CNS) [µM]	TGI (U251 CNS)	GI50 (KM12 colon) [µM]	TGI (KM12 colon) [µM]	GI50 (SW-620 colon) [µM]	TGI (SW-620 colon) [µM]	GI50 (786-0 renal) [µM]	TGI (786-0 renal) [µM]	GI50 (OVCAR-3 ovarian) [µM]	TGI (OVCAR-3 ovarian)	GI50 (HCT-116 colon) [µM]	TGI (HCT-116 colon)
CC1(C)[C@@H](O[C@@H]2OC[C@@H](O[C@@H]3O[C@H](CO)[C@@H](O)[C@H](O)[C@H]3O[C@@H]3OC[C@@H](O)[C@H](O)[C@H]3O)[C@H](O)[C@H]2O[C@@H]2O[C@H](CO)[C@@H](O)[C@H](O)[C@H]2O)CC[C@]2(C)[C@H]3CC[C@]45OC[C@@]6(CC[C@](C)(C=O)C[C@H]64)[C@H](O)C[C@@]5(C)[C@]3(C)CC[C@@H]12	0.185	1.92	0.794	1.66 µM	0.825	1.53 µM	0.943	1.95 µM	0.99	2.01 µM	1.21	3.17	0.969	2.04	2.84	5.77	1.01	2.06 µM	0.898	1.91 µM
CC[C@@H](C(=O)[C@@H](C)[C@@H](O)[C@H](C)[C@@H]1O[C@@H]([C@@H](CC)C(=O)N(CC)CC)CC[C@@H]1C)C1O[C@]2(C=CC(=O)[C@]3(CC[C@@](C)([C@H]4CC[C@](O)(CC)[C@H](C)O4)O3)O2)[C@H](C)C[C@@H]1C (stereo partly drawn)	2.39	6.63	2.96	15.3 µM	2.25	7.51 µM	3.21	> 100 µM	3.1	13.4 µM	1.82	3.68	3.11	23.5	3.22	15.9	2.34	6.49 µM	3.18	17.4 µM
Cc1cc(Cl)ccc1NC(=O)c1cc2ccccc2cc1O	0.443	8.77	1.94	> 100 µM	0.22	1.4 µM	0.931	> 100 µM	0.503	> 27.5 µM	1.91	> 44	1.59	> 100	1.19	> 100	0.369	> 34.9 µM	0.405	> 100 µM
CCCCCCCCCCCC1CCCC(C)N1 (stereo not drawn)	2.63	> 100	7.18	22.3 µM and 136 µM	16.2	31.9 µM and 154 µM	13.4	32.7 µM and 164 µM	4.53	18.2 µM and 128 µM	2.95	–	2.71	–	13.7	42.9	12	28.7 µM and 121 µM	5.82	> 41.9 µM and 104 µM
N#CSCC1CC(O)(c2ccccc2)CC(c2ccc(F)cc2)O1 (stereo not drawn)	0.572	3.19	2.42	8.08 µM	1.9	4.1 µM	3.86	18.5 µM	1.7	3.13 µM	1.63	3.07	2.07	3.74	1.61	3.27	1.45	2.76 µM	1.63	2.98 µM
COc1cc2c(cc1Nc1nc(Nc3ccsc3C(N)=O)c3cc[nH]c3n1)N(C(=O)CN(C)C)CCC2(C)C	0.00596	4.6	3.02	6.59 µM	1.18	4.97 µM	0.975	4.69 µM	3.09	6.25 µM	0.647	2.61	0.357	4.1	3.06	6.82	2.05	5.17 µM	1.05	4.8 µM
Fc1ccccc1C1CC(c2ccc3ccccc3c2)=Nc2ccccc2S1 (stereo not drawn)	–	> 100	–	> 100 µM	–	> 100 µM	–	> 100 µM	–	> 100 µM	–	> 100	–	> 100	–	> 100	–	> 100 µM	–	> 100 µM
CC1(C)Cc2cc(C(=O)O)c3c(c2C1=O)COCC3	–	> 100	–	> 100 µM	–	> 100 µM	–	> 100 µM	–	> 100 µM	–	> 100	–	> 100	–	> 100	–	> 100 µM	–	> 100 µM
